In brackets after ≈: the same amount, converted by molar mass.
Experiments:
Adenosine receptor A1 = biological target: T1, Adenosine receptor A1 (Homo sapiens, UniProt P30542); assay: biochemical
T1 sequence (P30542 whole entry): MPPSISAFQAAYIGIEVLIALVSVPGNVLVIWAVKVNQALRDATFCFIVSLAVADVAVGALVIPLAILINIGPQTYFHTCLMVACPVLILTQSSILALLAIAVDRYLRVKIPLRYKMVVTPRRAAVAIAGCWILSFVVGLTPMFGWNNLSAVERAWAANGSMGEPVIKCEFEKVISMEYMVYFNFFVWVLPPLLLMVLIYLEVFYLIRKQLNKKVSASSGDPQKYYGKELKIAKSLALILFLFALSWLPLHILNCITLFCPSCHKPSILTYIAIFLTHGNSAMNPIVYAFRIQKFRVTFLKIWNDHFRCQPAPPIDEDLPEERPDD
Description: Displacement of [3H]DPCPX from human recombinant adenosine A1 receptor expressed in HEK293 cells

[1] = Solubility in PBS at pH 7.4; type: physicochemical
Homo sapiens = species: Homo sapiens; assay: Selectivity for human adenosine A2A receptor over human adenosine A1 receptor
[2] = Metabolic stability assessed as intrinsic clearance in human liver microsomes; type: ADME, Microsome
Adenosine receptor A2a [3] = biological target: Adenosine receptor A2a (Homo sapiens, UniProt P29274); assay: biochemical
Adenosine receptor A2a (Homo sapiens, UniProt P29274), sequence (P29274 whole entry): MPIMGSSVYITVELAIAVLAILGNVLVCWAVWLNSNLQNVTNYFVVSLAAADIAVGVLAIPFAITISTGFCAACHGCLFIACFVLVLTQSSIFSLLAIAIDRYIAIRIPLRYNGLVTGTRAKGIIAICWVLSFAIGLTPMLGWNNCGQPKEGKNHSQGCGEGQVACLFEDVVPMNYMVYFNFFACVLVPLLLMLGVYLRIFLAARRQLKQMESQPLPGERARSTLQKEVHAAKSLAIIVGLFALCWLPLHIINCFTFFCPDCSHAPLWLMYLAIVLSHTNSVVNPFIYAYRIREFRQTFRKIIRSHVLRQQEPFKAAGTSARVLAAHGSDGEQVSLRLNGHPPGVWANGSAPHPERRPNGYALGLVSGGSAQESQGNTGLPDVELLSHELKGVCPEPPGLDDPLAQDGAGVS
Description: Displacement of [3H]ZM-241385 from human recombinant adenosine A2A receptor expressed in HEK293 cells

[4] = Drug level in rat brain at 10 mg/kg, po after 2 hrs; type: ADME, organism-based; set-up: dose 10 mg/kg, route oral; conditions: read-out: Drug uptake
Adenosine receptor A2a [5] = biological target: Adenosine receptor A2a (Rattus norvegicus, UniProt P30543); assay: biochemical
Adenosine receptor A2a (Rattus norvegicus, UniProt P30543), sequence (P30543 whole entry): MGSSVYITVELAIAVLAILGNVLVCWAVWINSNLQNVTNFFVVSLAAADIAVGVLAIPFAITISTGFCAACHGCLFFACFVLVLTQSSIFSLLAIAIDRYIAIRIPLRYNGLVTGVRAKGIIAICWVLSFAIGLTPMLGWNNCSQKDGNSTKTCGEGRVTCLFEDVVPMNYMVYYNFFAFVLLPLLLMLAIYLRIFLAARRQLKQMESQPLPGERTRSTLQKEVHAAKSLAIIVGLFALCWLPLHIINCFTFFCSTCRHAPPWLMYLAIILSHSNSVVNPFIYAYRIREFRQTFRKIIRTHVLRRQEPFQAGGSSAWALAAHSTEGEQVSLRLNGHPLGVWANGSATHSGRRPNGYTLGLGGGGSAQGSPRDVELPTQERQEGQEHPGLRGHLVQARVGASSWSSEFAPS
Description: Displacement of [3H]ZM241385 from rat recombinant adenosine A2A receptor expressed in CHO cells

Adenosine receptor A2b = biological target: T2, Adenosine receptor A2b (Homo sapiens, UniProt P29275); assay: Displacement of [3H]MRS1754 from human adenosine A2B receptor
T2 sequence (P29275 whole entry): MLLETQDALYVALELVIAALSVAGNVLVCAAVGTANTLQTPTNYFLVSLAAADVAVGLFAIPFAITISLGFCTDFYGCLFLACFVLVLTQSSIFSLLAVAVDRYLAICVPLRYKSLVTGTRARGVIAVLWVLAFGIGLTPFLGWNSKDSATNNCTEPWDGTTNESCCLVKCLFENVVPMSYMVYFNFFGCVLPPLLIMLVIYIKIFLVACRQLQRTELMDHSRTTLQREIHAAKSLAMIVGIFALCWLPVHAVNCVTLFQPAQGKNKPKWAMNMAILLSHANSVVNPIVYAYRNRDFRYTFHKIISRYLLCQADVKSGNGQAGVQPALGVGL

Adenosine receptor A3 = biological target: T3, Adenosine receptor A3 (Homo sapiens, UniProt P0DMS8); assay: Displacement of [125I]AB-MECA from human adenosine A3 receptor
T3 sequence (P0DMS8 whole entry): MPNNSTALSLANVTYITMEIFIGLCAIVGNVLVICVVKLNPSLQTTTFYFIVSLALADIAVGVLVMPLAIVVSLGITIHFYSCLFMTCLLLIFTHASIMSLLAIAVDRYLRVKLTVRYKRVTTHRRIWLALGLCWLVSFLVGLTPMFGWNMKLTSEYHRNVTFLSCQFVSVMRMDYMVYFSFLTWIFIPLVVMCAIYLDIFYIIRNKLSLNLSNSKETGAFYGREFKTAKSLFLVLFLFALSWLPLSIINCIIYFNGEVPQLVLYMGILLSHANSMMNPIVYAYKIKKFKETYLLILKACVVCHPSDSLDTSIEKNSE

[6] = Oral bioavailability in rat at 10 mg/kg; type: ADME, organism-based; conditions: in vivo
[7] = Dissociation constant, pKa of the compound; type: physicochemical
[8] = AUC in rat at 10 mg/kg, po; type: ADME, organism-based; set-up: dose 10 mg/kg, route oral; conditions: plasma
[9] = Lipophilicity, log D of the compound; type: physicochemical; conditions: octanol/water
[10] = Solubility in water; type: physicochemical

Structure (SMILES)	Ki (Adenosine receptor A1)	Ratio Ki (Homo sapiens)	Ki (Adenosine receptor A2a [3])	concentration at 2 h [4]	Ki (Adenosine receptor A2a [5])	further results
Nc1cc(-n2cccn2)nc(-c2ccco2)n1	56 nM	20	2.9 nM			solubility ([1]; PBS, read-out: Solubility): 80 µg/mL (≈ 352 µM); CLint scaled [2]: 73 mL/min/kg
O=C(CN1CCOCC1)Nc1cc(-n2cccn2)nc(-c2ccco2)n1	63 nM	39	1.6 nM			
COCCOc1ccc(N2CCN(CCn3ncc4c3nc(N)n3nc(-c5ccco5)nc43)CC2)cc1 [PRELADENANT]						solubility ([1]; buffer): < 0.01 µg/mL
Cc1cc(C)n(-c2cc(NC(=O)CN3CCN(C)CC3)nc(-c3ccco3)n2)n1	1730 nM	864	2 nM	600 ng/g	14 nM	
CC(=O)Nc1cc(-n2cccn2)nc(-c2ccco2)n1	9.2 nM	15				
CN(C)CC(=O)Nc1cc(-n2cccn2)nc(-c2ccco2)n1	28 nM	5	5.2 nM			
CN1CCN(CC(=O)Nc2cc(-n3cccn3)nc(-c3ccco3)n2)CC1	266 nM	99	2.7 nM	2700 ng/g	26 nM	Ki (Adenosine receptor A2b): 35 nM; Ki (Adenosine receptor A3): 660 nM; bioavailability [6]: 79%; pKa [7]: 7.9; AUC [8]: 2870 ng·h/mL; logD [9]: 2.2; solubility [10]: > 25000 µg/mL; CLint scaled [2]: 6 mL/min/kg
CN1CCN(CC(=O)Nc2cc(-c3nccs3)nc(-c3ccco3)n2)CC1	218 nM	238	0.9 nM	3200 ng/g	11 nM	
